Measured values: patent EP4721737A1, “USE OF PHARMACEUTICAL COMPOSITION COMPRISING COMPOUND HAVING BIS(AZANYLYLIDENE) SULFONYL STRUCTURE FOR TREATING ANEMIA-RELATED DISEASES” (Scinnohub Pharmaceutical Co., Ltd., priority 2023, dated 2024)
One block for each molecule: values may come before it.

How the values were obtained:
recombinant human PKR = recombinant human PKR (Homo sapiens, UniProt P30613); assay: pyruvate kinase (PKR) activity test, activation of recombinant enzyme (fluorescence kit); type: biochemical
Description: To test the activation effect of the compound of the present disclosure on recombinant human PKR.
3.1 A recombinant human PKR enzyme solution was prepared at a concentration of 60 ng/well (a 20 µL reaction system), and 5 µL of the solution was added into each well of a black transparent bottom 384-well plate.
3.2 Compound solutions were prepared at different concentrations, with the final concentrations of 1000/300/100 nM (containing 1% DMSO). Each 5 µL of the compound solution was added into the plate in step 3.1 and mixed well. The plate was incubated at room temperature for 10 min.
3.3 A reaction system was prepared according to the instructions of a kit (as shown in the table below), and 10 µL of the reaction system was added into each well of the 384-well plate, and mixed uniformly with the solution in step 3.2.
3.4 The 384-well plate was placed on a microplate reader to detect the fluorescence value at 540/590 nm, where the value was read every 2 minutes and the detection was conducted continuously for 1 hour.
3.5 The Slope value within the detection time was calculated, and the 1% DMSO well was used as a control well to calculate a compound activation rate. Activation rate % = (Slopeofcompoundwell/Slopeofcontrolwell) × 100% [formula]
With the log value of the compound concentration as the X axis and the percentage activation rate as the Y axis, a dose-effect curve was fitted with the log(agonist) vs. response-variable slope of the analysis software GraphPad Prism 5, and the AC50 value of the activity of each compound against PKR was obtained. Y = min + (max−min)/(1+10^(∧)((LogAC50−X)×Hillslope)). [formula]

[1] = target: T1, PKR in ex vivo red blood cells from healthy individuals (Homo sapiens, UniProt P30613); assay: ex vivo pyruvate kinase (PKR) activity experiment, red blood cells of healthy individuals; type: cell-based; details: 3 hours co-cultivation
T1 construct: endogenous in cells; host or cells: human red blood cells isolated from fresh peripheral blood of healthy individuals
Description: To test the effects of the compound of the present disclosure on PKR activation in ex vivo red blood cells from healthy individuals and patients with thalassemia.
• i. 5 g of glucose, 85 mg of adenine, and 2.625 g of mannitol were weighed and added into a 50 mL centrifuge tube. 40 mL of PBS was added to dissolve (sonicate for 30 minutes until completely dissolved). The solution was filtered through a 0.22 µm filter, then added to 460 mL of sterile PBS and mixed thoroughly.
• i. Fresh human peripheral blood was collected. K2EDTA was used as the anticoagulant. 1 part anticoagulant with 9 parts blood was mixed, then centrifuged at 500 g for 10 minutes at room temperature to remove the plasma. • ii. Packed red blood cells: 1.5 volumes of PBS were added, then centrifuged at 2000 ×g for 5 minutes at room temperature. After centrifugation, the supernatant was removed. This step was repeated twice. • iii. Diluted red blood cells: 1.5 volumes of PBS were added, then resuspended and mixed thoroughly. • iv. The diluted red blood cells were slowly added to 0.5 volume of 70% isotonic solution (e.g., 7.5 mL of diluted red blood cells + 3 mL of 70% isotonic solution Percoll) and centrifuged at 4000 ×g for 20 minutes at 4°C. • v. The supernatant was removed. The red blood cells at the bottom were washed once with 4-5 mL of PBS to elute the Percoll gel, and then centrifuged at 2000 ×g for 5 minutes at room temperature. • vi. The supernatant was removed. The red blood cells were counted and then diluted in AGAM medium containing 10% FBS to a density of 2 × 10^8 cells/mL for storage at 4°C.
i. The red blood cells were seeded into a 96-well plate at a uniform density of 1 × 10^7 cells/mL, with 100 µL per well. The test compounds (dissolved in DMSO) were diluted and added to the cell culture medium, resulting in final compound concentrations of 3000, 1000, 300, 100, 10, 3, and 1 nM (with 1% DMSO). The cells and compounds were co-cultivated for 3 hours in a 37°C incubator with 5% CO2. Subsequently, the plate was centrifuged at 2000 g for 20 minutes, and the supernatant was discarded. 100 µL of red blood cell lysis buffer was added to the cell pellet, vortexed for 20 minutes, and centrifuged at 4000 g for 5 minutes. The supernatant was collected for analysis. ii. The reaction system was prepared according to the kit instructions (shown as the table below), 10 µL of the reaction system was added to each well of a 384-well plate, and 10 µL of red blood cell lysis buffer was took and mixed well (20 µL reaction system).
iii. A black, transparent-bottomed 384-well plate was placed in a microplate reader to measure fluorescence at 540/590 nm. The fluorescence was read every 2 minutes for 1 hour.
i. The Slope value was calculated over the assay time. Compound activation percentage was calculated using the 1% DMSO well as the control well. Activation percentage = (Slope of compound well / Slope of control well) × 100% ii. Dose-response curve was fit using the logarithmic compound concentration on the X-axis and the percent activation percentage on the Y-axis, the log(agonist) vs. response - variable slope function in GraphPad Prism 5 was used to determine the AC50 value for each compound on PKR activity. Y = min + (max−min)/(1+10^(∧)((LogAC50−X)×Hillslope)). [formula] The PKR agonist effects of the compound of the present disclosure on ex vivo red blood cells from healthy individuals and thalassemia patients were determined using the above assay. The AC50 values measured on ex vivo red blood cells from healthy individuals are as follows (A represents 0-100 nM, B represents 101-300 nM, and C represents 300-1000 nM): […]

T1 sequence (P30613 whole entry): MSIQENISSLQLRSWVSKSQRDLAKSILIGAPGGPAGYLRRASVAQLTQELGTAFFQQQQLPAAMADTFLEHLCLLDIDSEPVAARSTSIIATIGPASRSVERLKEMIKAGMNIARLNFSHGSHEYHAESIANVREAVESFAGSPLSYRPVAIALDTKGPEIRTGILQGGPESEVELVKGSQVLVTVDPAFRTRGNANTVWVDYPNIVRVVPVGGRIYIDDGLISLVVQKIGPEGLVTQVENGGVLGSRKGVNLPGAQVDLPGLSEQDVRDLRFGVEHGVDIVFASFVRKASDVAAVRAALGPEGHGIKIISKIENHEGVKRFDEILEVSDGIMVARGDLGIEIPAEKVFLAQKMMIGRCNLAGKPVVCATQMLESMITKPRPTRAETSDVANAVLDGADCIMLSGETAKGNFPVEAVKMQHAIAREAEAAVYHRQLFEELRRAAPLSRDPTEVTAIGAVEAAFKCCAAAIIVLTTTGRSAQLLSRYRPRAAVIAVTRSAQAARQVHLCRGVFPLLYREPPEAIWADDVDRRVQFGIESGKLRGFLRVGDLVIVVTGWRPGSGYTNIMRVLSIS
recombinant human PKR, sequence (P30613 whole entry): as above

Compound: CN1CCOc2ccc(S(=O)(=O)N3CC(=C4CN(C(=O)[C@H](CO)c5ccccc5)C4)C3)cc21 [Compound 39, (S)-3-hydroxy-1-(1'-((4-methyl-3,4-dihydro-2H-benzo[b][1,4]oxazin-6-yl)sulfonyl)-1',4'-dihydro-2H, 2'H-[3,3'-diazetidinylidene]-1(4H)-yl)-2-phenylpropan-1-one]
AC50 (recombinant human PKR): < 100 nM
AC50 [1]: < 100 nM

Compound: CNCC(C(=O)N1CC(=C2CN(S(=O)(=O)c3ccc4c(c3)OCCO4)C2)C1)c1cccc(Cl)c1 (stereo not shown) [Compound 26, 2-(3-chlorophenyl)-1-(1'-((2,3-dihydrobenzo[b][1,4]dioxin-6-yl)sulfonyl)-1',4'-dihydro-2H,2'H-[3,3'-diazetidinylidene]-1(4H)-yl)-3-(methylamino)propan-1-one]
AC50 (recombinant human PKR): < 100 nM
AC50 [1]: 300 to 1000 nM

Compound: NC(C(=O)N1CC(=C2CN(S(=O)(=O)c3ccc(OC(F)F)cc3)C2)C1)c1ccc(F)cc1 (stereo not shown) [Compound 22, 2-amino-1-(1'-((4-(difluoromethoxy)phenyl)sulfonyl)-1',4'-dihydro-2H,2'H-[3,3'-diazetidinylidene]-1 (4H)-yl)-2-(4-fluorophenyl)ethan-1-one]
AC50 [1]: < 100 nM

Compound: O=C(C(CO)c1ccc(C(F)F)cc1)N1CC(=C2CN(S(=O)(=O)c3ccccn3)C2)C1 (stereo not shown) [Compound 71, 2-(4-(difluoromethyl)phenyl)-3-hydroxy-1-(1'-(pyridin-2-ylsulfonyl)-1',4'-dihydro-2H,2'H-[3,3'-diazetidinylidene]-1(4H)-y 1)propan-1-one]
AC50 [1]: 101 to 300 nM

Compound: COc1ccc(S(=O)(=O)N2CC(=C3CN(C(=O)[C@H](CO)c4ccccc4)C3)C2)cc1 [Compound 5, (S)-3-hydroxy-1-(1'-((4-methoxyphenyl)sulfonyl)-1',4'-dihydro-2H,2'H-[3,3'-diazetidinylidene]-1(4H )-yl)-2-phenylpropan-1-one]
AC50 [1]: 101 to 300 nM

Compound: O=C(C(CO)c1ccc(F)cc1)N1CC(=C2CN(S(=O)(=O)c3ccc(OC(F)F)cc3)C2)C1 (stereo not shown) [Compound 16, 1-(1'-((4-(difluoromethoxy)phenyl)sulfonyl)-1',4'-dihydro-2H,2'H-[3,3'-diazetidinylidene]-1(4H)-yl)-2-(4-fluorophenyl)-3-hydroxypropan-1-one]
AC50 [1]: < 100 nM

Compound: O=C(C(CO)c1cccnc1)N1CC(=C2CN(S(=O)(=O)c3ccc4ncsc4c3)C2)C1 (stereo not shown) [Compound 48, 1-(1'-(benzo[d]thiazol-6-ylsulfonyl)-1',4'-dihydro-2H,2'H-[3,3'-diazetidinylidene]-1(4H)-yl)-3-hydroxy-2-(pyridin-3-yl)propan-1-one]
AC50 [1]: 300 to 1000 nM

Next, values leading:

AC50 (recombinant human PKR): < 100 nM
AC50 [1]: < 100 nM
Compound: COc1ccc(S(=O)(=O)N2CC(=C3CN(C(=O)[C@H](CO)c4ccc(F)cc4F)C3)C2)nc1 [Compound 87, (S)-2-(2,4-difluorophenyl)-3-hydroxy-1-(1'-((5-methoxypyridin-2-yl)sulfonyl)-1',4'-dihydro-2H,2'H-[3,3'-diazetidinylidene]-1(4H)-yl)propan-1-one]

AC50 (recombinant human PKR): < 100 nM
AC50 [1]: < 100 nM
Compound: O=C([C@H](CO)c1ccccc1)N1CC(=C2CN(S(=O)(=O)c3ccc(OC(F)F)cn3)C2)C1 [Compound 80, (S)-1-(1'-((5-(difluoromethoxy)pyridin-2-yl)sulfonyl)-1',4'-dihydro-2H,2'H-[3,3'-diazetidinylidene]-1 (4H)-yl)-3-hydroxy-2-phenylpropan-1-one]

AC50 (recombinant human PKR): < 100 nM
AC50 [1]: < 100 nM
Compound: [2H]C([2H])([2H])Oc1ccc(S(=O)(=O)N2CC(=C3CN(C(=O)[C@H](CO)c4ccccc4)C3)C2)nc1 [Compound 91, (S)-3-hydroxy-1-(1'-((5-(methoxy-d3)pyridin-2-yl)sulfonyl)-1',4'-dihydro-2H,2'H-[3,3'-diazetidinylidene]-1(4H)-yl)-2-phenylpropan-1-one]

AC50 [1]: 101 to 300 nM
Compound: O=C([C@H](CO)c1ccccc1)N1CC(=C2CN(S(=O)(=O)c3ccc(OC4CC4)cn3)C2)C1 [Compound 82, (S)-1-(1'-((5-cyclopropoxypyridin-2-yl)sulfonyl)-1',4'-dihydro-2H,2'H-[3,3'-diazetidinylidene]-1(4H) -yl)-3-hydroxy-2-phenylpropan-1-one]
